Results: the supplement of paper PMC11451515

Columns and labels:
Conditions in all cases: 48 h
[1] = system: NOMO1; assay: cell viability relative to DMSO control; higher = less cytotoxic
Procedure, shortened: (§1)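 Leukemia cells (NOMO1 or SEM, 500 cells/well; P12-Ichikawa, 1000 cells/well) were seeded in 5 μl in 1536-well plates after at least four passages of adaptation to each medium. They received library compounds in DMSO by pin dosing, 11 threefold points from 47 μM to 0.79 nM. Luminescence with CellTiter-Glo One was read after 48 h at 37°C. Viability is stated per plate relative to DMSO wells, with cell-free wells as background.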

[2] = system: P12-Ichikawa; assay: as above
Procedure, shortened: as §1

[3] = system: SEM cells; assay: as above
Procedure, shortened: as §1

[4] = system: NOMO1; assay: AUC of viability dose-response curve (% viability x log10 dose units); higher = less sensitive
Procedure, shortened: (§2)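 Medium-adapted leukemia cells in 1536-well plates, at 500 or 1000 cells/well, were incubated for 48 h at 37°C with library compounds in DMSO at 11 threefold doses from 47 μM to 0.79 nM. CellTiter-Glo One luminescence normalised per plate to DMSO and cell-free wells was fitted with a four-parameter log-logistic model over log10 doses. Area under the curve was integrated from this fit by trapezoidal rule, with curves beyond full viability scaled and failed quality-control curves removed.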

[5] = system: P12-Ichikawa; assay: as above
Procedure, shortened: as §2

[6] = system: SEM cells; assay: as above
Procedure, shortened: as §2

C[N]1C=NC=C1[C@@](N)(C2=CC=C(Cl)C=C2)C3=CC=C4N(C)C(=O)\C=C(\C5=CC=CC(=C5)Cl)C4=C3
cell viability [%]
Conditions | [1] | [2] | [3]
HPLM + 10% dialyzed FBS, 0.000781 µM | 108 | 111 | 112
HPLM + 10% dialyzed FBS, 0.00234 µM | 98.5 | 110 | 126
HPLM + 10% dialyzed FBS, 0.00702 µM | 112 | 113 | 111
HPLM + 10% dialyzed FBS, 0.0211 µM | 129 | 106 | 103
HPLM + 10% dialyzed FBS, 0.0632 µM | 91.5 | 109 | 65.5
HPLM + 10% dialyzed FBS, 0.19 µM | 95.4 | 97.4 | 53.1
HPLM + 10% dialyzed FBS, 0.569 µM | 84.9 | 82.4 | 50.7
HPLM + 10% dialyzed FBS, 1.71 µM | 83.4 | 79.2 | 48.5
HPLM + 10% dialyzed FBS, 5.12 µM | 76.2 | 73 | 49.2
HPLM + 10% dialyzed FBS, 15.4 µM | 73.5 | 50.1 | 39.8
HPLM + 10% dialyzed FBS, 46.1 µM | 47.2 | 27.9 | 28.6
RPMI 5 mM glucose + 10% FBS, 0.000781 µM | 100 | 110 | 105
RPMI 5 mM glucose + 10% FBS, 0.00234 µM | 95.6 | 113 | 116
RPMI 5 mM glucose + 10% FBS, 0.00702 µM | 95.5 | 113 | 109
RPMI 5 mM glucose + 10% FBS, 0.0211 µM | 93.2 | 106 | 101
RPMI 5 mM glucose + 10% FBS, 0.0632 µM | 102 | 100 | 72.2
RPMI 5 mM glucose + 10% FBS, 0.19 µM | 94.2 | 81.2 | 43.9
RPMI 5 mM glucose + 10% FBS, 0.569 µM | 90.3 | 82.9 | 51.7
RPMI 5 mM glucose + 10% FBS, 1.71 µM | 84.8 | 69 | 43.7
RPMI 5 mM glucose + 10% FBS, 5.12 µM | 85.4 | 67.7 | 40.6
RPMI 5 mM glucose + 10% FBS, 15.4 µM | 82.6 | 42.1 | 33.9
RPMI 5 mM glucose + 10% FBS, 46.1 µM | 52.8 | 32.3 | 13.6
RPMI 5 mM glucose + 10% dialyzed FBS, 0.000781 µM | 112 | 105 | 105
RPMI 5 mM glucose + 10% dialyzed FBS, 0.00234 µM | 111 | 114 | 102
RPMI 5 mM glucose + 10% dialyzed FBS, 0.00702 µM | 121 | 115 | 97.9
RPMI 5 mM glucose + 10% dialyzed FBS, 0.0211 µM | 106 | 100 | 108
RPMI 5 mM glucose + 10% dialyzed FBS, 0.0632 µM | 110 | 107 | 98.5
RPMI 5 mM glucose + 10% dialyzed FBS, 0.19 µM | 97.3 | 92.2 | 71
RPMI 5 mM glucose + 10% dialyzed FBS, 0.569 µM | 97.1 | 85.5 | 65.9
RPMI 5 mM glucose + 10% dialyzed FBS, 1.71 µM | 87.7 | 72.8 | 62.8
RPMI 5 mM glucose + 10% dialyzed FBS, 5.12 µM | 80.9 | 69.6 | 55
RPMI 5 mM glucose + 10% dialyzed FBS, 15.4 µM | 67.4 | 59.9 | 49.7
RPMI 5 mM glucose + 10% dialyzed FBS, 46.1 µM | 41.7 | 39.3 | 22.3

AUC of viability dose-response curve
Conditions | [4] | [5] | [6]
HPLM + 10% dialyzed FBS | 398 | 377 | 284
RPMI 5 mM glucose + 10% FBS | 430 | 352 | 279
RPMI 5 mM glucose + 10% dialyzed FBS | 401 | 376 | 342

Cc1ccc(-n2nc(C(C)(C)C)cc2NC(=O)Nc2ccc(OCCN3CCOCC3)c3ccccc23)cc1
cell viability [%]
Conditions | [1] | [2] | [3]
HPLM + 10% dialyzed FBS, 0.000781 µM | 104 | 106 | 78.7
HPLM + 10% dialyzed FBS, 0.00234 µM | 103 | 112 | 94
HPLM + 10% dialyzed FBS, 0.00702 µM | 119 | 113 | 91.9
HPLM + 10% dialyzed FBS, 0.0211 µM | 123 | 115 | 90.8
HPLM + 10% dialyzed FBS, 0.0632 µM | 114 | 111 | 86.7
HPLM + 10% dialyzed FBS, 0.19 µM | 104 | 117 | 100
HPLM + 10% dialyzed FBS, 0.569 µM | 111 | 119 | 84
HPLM + 10% dialyzed FBS, 1.71 µM | 115 | 126 | 86.2
HPLM + 10% dialyzed FBS, 5.12 µM | 120 | 114 | 82.2
HPLM + 10% dialyzed FBS, 15.4 µM | 114 | 109 | 63.7
HPLM + 10% dialyzed FBS, 46.1 µM | 96 | 102 | 61.8
RPMI 5 mM glucose + 10% FBS, 0.000781 µM | 102 | 106 | 96.6
RPMI 5 mM glucose + 10% FBS, 0.00234 µM | 101 | 107 | 115
RPMI 5 mM glucose + 10% FBS, 0.00702 µM | 113 | 103 | 104
RPMI 5 mM glucose + 10% FBS, 0.0211 µM | 103 | 97.7 | 103
RPMI 5 mM glucose + 10% FBS, 0.0632 µM | 104 | 113 | 87.1
RPMI 5 mM glucose + 10% FBS, 0.19 µM | 97.1 | 112 | 87.1
RPMI 5 mM glucose + 10% FBS, 0.569 µM | 107 | 113 | 84.1
RPMI 5 mM glucose + 10% FBS, 1.71 µM | 106 | 117 | 80.8
RPMI 5 mM glucose + 10% FBS, 5.12 µM | 95.8 | 112 | 83.6
RPMI 5 mM glucose + 10% FBS, 15.4 µM | 95.4 | 88.7 | 64
RPMI 5 mM glucose + 10% FBS, 46.1 µM | 98.1 | 85.2 | 74.8
RPMI 5 mM glucose + 10% dialyzed FBS, 0.000781 µM | 88.2 | 105 | 89.9
RPMI 5 mM glucose + 10% dialyzed FBS, 0.00234 µM | 105 | 100 | 97.9
RPMI 5 mM glucose + 10% dialyzed FBS, 0.00702 µM | 111 | 112 | 79.6
RPMI 5 mM glucose + 10% dialyzed FBS, 0.0211 µM | 106 | 121 | 94.1
RPMI 5 mM glucose + 10% dialyzed FBS, 0.0632 µM | 106 | 109 | 92
RPMI 5 mM glucose + 10% dialyzed FBS, 0.19 µM | 108 | 116 | 90
RPMI 5 mM glucose + 10% dialyzed FBS, 0.569 µM | 118 | 125 | 83.7
RPMI 5 mM glucose + 10% dialyzed FBS, 1.71 µM | 120 | 126 | 84.7
RPMI 5 mM glucose + 10% dialyzed FBS, 5.12 µM | 99.9 | 116 | 84.1
RPMI 5 mM glucose + 10% dialyzed FBS, 15.4 µM | 107 | 97.5 | 51.7
RPMI 5 mM glucose + 10% dialyzed FBS, 46.1 µM | 96.2 | 104 | 58.8

AUC of viability dose-response curve
Conditions | [4] | [5] | [6]
HPLM + 10% dialyzed FBS | 474 | 477 | 403
RPMI 5 mM glucose + 10% FBS | 460 | 463 | 399
RPMI 5 mM glucose + 10% dialyzed FBS | 471 | 473 | 398
